Where two headings read alike, the source gives them in different places.
Tests used:
Type in all cases: in vivo
[1] = test system: morningglory (Ipomoea coccinea); assay: Test B pre/postemergence; conditions: Ipomoea; for pest or weed control at 125 g/ha: 125 g ai/ha; for pest or weed control at 500 g/ha: 500 g ai/ha
Method in brief: (§1)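 Plants treated pre- or postemergence were compared visually with controls after 13 to 15 days. Ratings ran from 0, no effect, to 100, complete control.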

[2] = test system: cocklebur (Xanthium strumarium); assay: Test B pre/postemergence; conditions: Xanthium strumarium; for pest or weed control at 125 g/ha: 125 g ai/ha; for pest or weed control at 500 g/ha: 500 g ai/ha
Method in brief: as §1

corn (Zea mays) = assay: Test B pre/postemergence; conditions: Zea mays
Method in brief: as §1

[3] = test system: pigweed (Amaranthus retroflexus); assay: Test B pre/postemergence; conditions: Amaranthus retroflexus; for pest or weed control at 125 g/ha: 125 g ai/ha; for pest or weed control at 500 g/ha: 500 g ai/ha
Method in brief: as §1

[4] = test system: Surinam grass (Brachiaria decumbens); assay: Test B pre/postemergence; conditions: Urochloa decumbens; for pest or weed control at 125 g/ha: 125 g ai/ha; for pest or weed control at 500 g/ha: 500 g ai/ha
Method in brief: as §1

[5] = test system: barnyardgrass (Echinochloa crus-galli); assay: Test B pre/postemergence; conditions: Echinochloa crus-galli; for pest or weed control at 125 g/ha: 125 g ai/ha; for pest or weed control at 500 g/ha: 500 g ai/ha
Method in brief: as §1

[6] = test system: giant foxtail (Setaria faberii); assay: Test B pre/postemergence; conditions: Setaria faberi; for pest or weed control at 125 g/ha: 125 g ai/ha; for pest or weed control at 500 g/ha: 500 g ai/ha
Method in brief: as §1

[7] = test system: crabgrass (Digitaria sanguinalis); assay: Test B pre/postemergence; conditions: Digitaria sanguinalis; for pest or weed control at 125 g/ha: 125 g ai/ha; for pest or weed control at 500 g/ha: 500 g ai/ha
Method in brief: as §1

[8] = test system: wheat (Triticum aestivum); assay: Test B pre/postemergence; conditions: Triticum aestivum; for plant injury at 125 g/ha: 125 g ai/ha; for plant injury at 500 g/ha: 500 g ai/ha
Method in brief: as §1

[9] = test system: lambsquarters (Chenopodium album); assay: Test B pre/postemergence; conditions: Chenopodium album; for pest or weed control at 125 g/ha: 125 g ai/ha; for pest or weed control at 500 g/ha: 500 g ai/ha
Method in brief: as §1

[10] = test system: velvetleaf (Abutilon theophrasti); assay: Test B pre/postemergence; conditions: Abutilon theophrasti; for pest or weed control at 125 g/ha: 125 g ai/ha; for pest or weed control at 500 g/ha: 500 g ai/ha
Method in brief: as §1

wild oat (Avena fatua) = assay: Test B postemergence; conditions: Avena fatua, post-emergence
Method in brief: as §1

[11] = test system: blackgrass (Alopecurus myosuroides); assay: Test B postemergence; conditions: Alopecurus myosuroides, post-emergence
Method in brief: as §1

[12] = test system: barnyardgrass (Echinochloa crus-galli); assay: Test B flooded paddy test; conditions: Echinochloa crus-galli, Flood, 1000 g ai/ha; scale 0 (no effect) to 100 (complete control); read-out: Plant response rating, Barnyardgrass
Method in brief: (§2)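 Rice, umbrella sedge, duck salad and barnyardgrass grown to 2-leaf stage under flooded paddy conditions and treated with formulated test chemicals. Kept in greenhouse 13–15 days, then visually rated against untreated controls on a 0–100 scale (0 no effect, 100 complete control).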

[13] = test system: duck salad (Heteranthera limosa); assay: Test B flooded paddy test; conditions: Heteranthera limosa, Flood, 1000 g ai/ha; scale 0 to 100; read-out: Plant response rating, Ducksalad
Method in brief: as §2

[14] = test system: umbrella sedge (Cyperus difformis); assay: Test B flooded paddy test; conditions: Cyperus difformis, Flood, 1000 g ai/ha; scale 0 to 100; read-out: Plant response rating, Sedge, Umbrella
Method in brief: as §2

rice (Oryza sativa) = assay: Test B flooded paddy test; conditions: Oryza sativa, Flood, 1000 g ai/ha; scale 0 to 100; read-out: Plant response rating, Rice
Method in brief: as §2

Nc1nc(C2CC2)nc(C(=O)OCc2ccccc2)c1Br [Compound 22, phenylmethyl 6-amino-5-bromo-2-cyclopropyl-4-pyrimidinecarboxylate]
pest or weed control at 125 g/ha ([1]; post-emergence, Postemergence, scale 0 to 100 (0 no effect, 100 complete control), read-out: Morningglory plant response rating): 90% | pest or weed control at 500 g/ha ([1]; post-emergence, Postemergence, scale 0 to 100, read-out: Plant response rating, Morningglory): 100% | pest or weed control at 125 g/ha ([1]; pre-emergence, Preemergence, scale 0 to 100 (0 no effect, 100 complete control), read-out: Plant response rating, Morningglory): 100% | pest or weed control at 500 g/ha ([1]; pre-emergence, Preemergence, scale 0 to 100 (0 no effect, 100 complete control), read-out: Morningglory plant response rating): 100% | pest or weed control at 125 g/ha ([2]; post-emergence, Postemergence, scale 0 to 100 (0 no effect, 100 complete control), read-out: Cocklebur plant response rating): 100% | pest or weed control at 500 g/ha ([2]; post-emergence, Postemergence, scale 0 to 100, read-out: Plant response rating, Cocklebur): 100% | pest or weed control at 125 g/ha ([2]; pre-emergence, Preemergence, scale 0 to 100 (0 no effect, 100 complete control), read-out: Plant response rating, Cocklebur): 50% | pest or weed control at 500 g/ha ([2]; pre-emergence, Preemergence, scale 0 to 100 (0 no effect, 100 complete control), read-out: Cocklebur plant response rating): 80% | plant injury at 125 g/ha (corn (Zea mays); post-emergence, Postemergence, 125 g ai/ha, scale 0 to 100 (0 no effect, 100 complete control), read-out: Corn plant response rating): 20% | Corn plant response rating (crop injury, 0 = no effect, 100 = complete kill) at 500 g/ha (corn (Zea mays); post-emergence, Postemergence, 500 g ai/ha, scale 0 to 100): 80% | Corn plant response rating (crop injury, 0 = no effect, 100 = complete kill) at 125 g/ha (corn (Zea mays); pre-emergence, Preemergence, 125 g ai/ha, scale 0 to 100 (0 no effect, 100 complete control)): 10% | pest or weed control at 125 g/ha ([3]; post-emergence, Postemergence, scale 0 to 100 (0 no effect, 100 complete control), read-out: Pigweed plant response rating): 100% | pest or weed control at 500 g/ha ([3]; post-emergence, Postemergence, scale 0 to 100, read-out: Plant response rating, Pigweed): 100% | pest or weed control at 125 g/ha ([3]; pre-emergence, Preemergence, scale 0 to 100 (0 no effect, 100 complete control), read-out: Plant response rating, Pigweed): 60% | pest or weed control at 500 g/ha ([3]; pre-emergence, Preemergence, scale 0 to 100 (0 no effect, 100 complete control), read-out: Pigweed plant response rating): 80% | pest or weed control at 125 g/ha ([4]; post-emergence, Postemergence, scale 0 to 100 (0 no effect, 100 complete control), read-out: Surinam Grass plant response rating): 80% | pest or weed control at 500 g/ha ([4]; post-emergence, Postemergence, scale 0 to 100, read-out: Plant response rating, Surinam Grass): 90% | pest or weed control at 125 g/ha ([4]; pre-emergence, Preemergence, scale 0 to 100 (0 no effect, 100 complete control), read-out: Plant response rating, Surinam Grass): 0% | pest or weed control at 500 g/ha ([4]; pre-emergence, Preemergence, scale 0 to 100 (0 no effect, 100 complete control), read-out: Surinam Grass plant response rating): 20% | pest or weed control at 125 g/ha ([5]; post-emergence, Postemergence, scale 0 to 100 (0 no effect, 100 complete control), read-out: Barnyardgrass plant response rating): 70% | pest or weed control at 500 g/ha ([5]; post-emergence, Postemergence, scale 0 to 100, read-out: Plant response rating, Barnyardgrass): 90% | pest or weed control at 125 g/ha ([5]; pre-emergence, Preemergence, scale 0 to 100 (0 no effect, 100 complete control), read-out: Plant response rating, Barnyardgrass): 0% | pest or weed control at 500 g/ha ([5]; pre-emergence, Preemergence, scale 0 to 100 (0 no effect, 100 complete control), read-out: Barnyardgrass plant response rating): 20% | pest or weed control at 125 g/ha ([6]; post-emergence, Postemergence, scale 0 to 100 (0 no effect, 100 complete control), read-out: Foxtail, Giant plant response rating): 70% | pest or weed control at 500 g/ha ([6]; post-emergence, Postemergence, scale 0 to 100, read-out: Plant response rating, Foxtail, Giant): 80% | pest or weed control at 125 g/ha ([6]; pre-emergence, Preemergence, scale 0 to 100 (0 no effect, 100 complete control), read-out: Plant response rating, Foxtail, Giant): 0% | pest or weed control at 500 g/ha ([6]; pre-emergence, Preemergence, scale 0 to 100 (0 no effect, 100 complete control), read-out: Foxtail, Giant plant response rating): 20% | pest or weed control at 125 g/ha ([7]; post-emergence, Postemergence, scale 0 to 100 (0 no effect, 100 complete control), read-out: Crabgrass plant response rating): 50% | pest or weed control at 500 g/ha ([7]; post-emergence, Postemergence, scale 0 to 100, read-out: Plant response rating, Crabgrass): 90% | pest or weed control at 125 g/ha ([7]; pre-emergence, Preemergence, scale 0 to 100 (0 no effect, 100 complete control), read-out: Plant response rating, Crabgrass): 20% | pest or weed control at 500 g/ha ([7]; pre-emergence, Preemergence, scale 0 to 100 (0 no effect, 100 complete control), read-out: Crabgrass plant response rating): 100% | plant injury at 125 g/ha ([8]; post-emergence, Postemergence, scale 0 to 100 (0 no effect, 100 complete control), read-out: Wheat plant response rating): 0% | plant injury at 500 g/ha ([8]; post-emergence, Postemergence, scale 0 to 100, read-out: Plant response rating, Wheat): 70% | plant injury at 125 g/ha ([8]; pre-emergence, Preemergence, scale 0 to 100 (0 no effect, 100 complete control), read-out: Plant response rating, Wheat): 10% | plant injury at 500 g/ha ([8]; pre-emergence, Preemergence, scale 0 to 100 (0 no effect, 100 complete control), read-out: Wheat plant response rating): 50% | pest or weed control at 125 g/ha ([9]; post-emergence, Postemergence, scale 0 to 100 (0 no effect, 100 complete control), read-out: Lambsquarters plant response rating): 100% | pest or weed control at 500 g/ha ([9]; post-emergence, Postemergence, scale 0 to 100, read-out: Plant response rating, Lambsquarters): 100% | pest or weed control at 125 g/ha ([9]; pre-emergence, Preemergence, scale 0 to 100 (0 no effect, 100 complete control), read-out: Plant response rating, Lambsquarters): 70% | pest or weed control at 500 g/ha ([9]; pre-emergence, Preemergence, scale 0 to 100 (0 no effect, 100 complete control), read-out: Lambsquarters plant response rating): 100% | pest or weed control at 125 g/ha ([10]; post-emergence, Postemergence, scale 0 to 100 (0 no effect, 100 complete control), read-out: Velvetleaf plant response rating): 100% | pest or weed control at 500 g/ha ([10]; post-emergence, Postemergence, scale 0 to 100, read-out: Plant response rating, Velvetleaf): 100% | pest or weed control at 125 g/ha ([10]; pre-emergence, Preemergence, scale 0 to 100 (0 no effect, 100 complete control), read-out: Plant response rating, Velvetleaf): 30% | pest or weed control at 500 g/ha ([10]; pre-emergence, Preemergence, scale 0 to 100 (0 no effect, 100 complete control), read-out: Velvetleaf plant response rating): 100% | pest or weed control at 125 g/ha (wild oat (Avena fatua); 125 g ai/ha, scale 0 to 100 (0 no effect, 100 complete control), read-out: Oat, Wild plant response rating): 10% | pest or weed control at 500 g/ha (wild oat (Avena fatua); 500 g ai/ha, scale 0 to 100, read-out: Plant response rating, Oat, Wild): 60% | pest or weed control at 125 g/ha ([11]; 125 g ai/ha, scale 0 to 100 (0 no effect, 100 complete control), read-out: Blackgrass plant response rating): 60% | pest or weed control at 500 g/ha ([11]; 500 g ai/ha, scale 0 to 100, read-out: Plant response rating, Blackgrass): 80% | pest or weed control at 1000 g/ha [12]: 80% | pest or weed control at 1000 g/ha [13]: 90% | pest or weed control at 1000 g/ha [14]: 50% | plant injury at 1000 g/ha (rice (Oryza sativa)): 60%

Source: patent US8802597B2, “Herbicidal pyrimidines” (E I du Pont de Nemours and Company, priority 2003, dated 2014)
